Data as given in article PMC9680877 (ACS Chemical Biology, 2022).

Legend:
Type in all cases: binding
TRIM11 = target: T1, TRIM11 (Homo sapiens, UniProt Q96F44); experiment: dose-response competition pulldown with MS readout
T1 sequence (Q96F44 1-468): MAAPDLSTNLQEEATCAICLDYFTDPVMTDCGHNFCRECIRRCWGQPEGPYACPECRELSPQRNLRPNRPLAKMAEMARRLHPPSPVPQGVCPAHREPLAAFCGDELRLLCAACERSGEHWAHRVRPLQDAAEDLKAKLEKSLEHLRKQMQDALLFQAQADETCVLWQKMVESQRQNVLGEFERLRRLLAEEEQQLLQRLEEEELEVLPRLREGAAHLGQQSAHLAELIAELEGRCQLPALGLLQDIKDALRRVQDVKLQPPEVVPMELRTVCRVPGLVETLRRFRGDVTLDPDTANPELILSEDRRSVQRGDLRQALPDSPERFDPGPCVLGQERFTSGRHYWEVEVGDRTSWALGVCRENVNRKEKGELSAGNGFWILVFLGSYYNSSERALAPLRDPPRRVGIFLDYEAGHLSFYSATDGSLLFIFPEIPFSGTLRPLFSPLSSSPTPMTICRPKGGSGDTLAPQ

MED15 = target: T2, MED15 (Homo sapiens, UniProt Q96RN5); experiment: dose-response competition pulldown with MS readout
T2 sequence (Q96RN5 1-788): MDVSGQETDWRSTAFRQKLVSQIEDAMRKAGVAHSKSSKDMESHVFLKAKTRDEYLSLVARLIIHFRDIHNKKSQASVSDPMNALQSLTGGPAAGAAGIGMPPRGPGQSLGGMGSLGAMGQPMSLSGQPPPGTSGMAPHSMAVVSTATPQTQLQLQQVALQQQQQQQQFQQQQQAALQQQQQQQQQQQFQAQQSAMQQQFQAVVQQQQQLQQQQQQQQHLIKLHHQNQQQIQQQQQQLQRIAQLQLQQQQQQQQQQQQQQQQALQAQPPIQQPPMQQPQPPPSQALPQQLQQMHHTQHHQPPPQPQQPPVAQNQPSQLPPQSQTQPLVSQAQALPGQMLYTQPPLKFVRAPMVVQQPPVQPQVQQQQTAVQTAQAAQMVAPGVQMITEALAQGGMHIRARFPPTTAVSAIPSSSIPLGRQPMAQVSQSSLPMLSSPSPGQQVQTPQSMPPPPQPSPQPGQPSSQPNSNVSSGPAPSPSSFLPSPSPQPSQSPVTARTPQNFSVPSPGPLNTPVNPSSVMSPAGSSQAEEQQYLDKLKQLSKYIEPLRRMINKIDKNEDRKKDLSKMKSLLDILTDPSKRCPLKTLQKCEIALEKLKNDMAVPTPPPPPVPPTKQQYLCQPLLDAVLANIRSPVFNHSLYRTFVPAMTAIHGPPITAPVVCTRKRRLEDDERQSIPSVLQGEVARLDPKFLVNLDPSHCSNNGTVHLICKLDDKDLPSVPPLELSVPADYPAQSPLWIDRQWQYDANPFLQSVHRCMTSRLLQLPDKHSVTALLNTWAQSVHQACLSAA

GATA1 = GATA1 (Homo sapiens, UniProt P15976); experiment: dose-response competition pulldown with MS readout
Sequence of GATA1 (P15976 whole entry): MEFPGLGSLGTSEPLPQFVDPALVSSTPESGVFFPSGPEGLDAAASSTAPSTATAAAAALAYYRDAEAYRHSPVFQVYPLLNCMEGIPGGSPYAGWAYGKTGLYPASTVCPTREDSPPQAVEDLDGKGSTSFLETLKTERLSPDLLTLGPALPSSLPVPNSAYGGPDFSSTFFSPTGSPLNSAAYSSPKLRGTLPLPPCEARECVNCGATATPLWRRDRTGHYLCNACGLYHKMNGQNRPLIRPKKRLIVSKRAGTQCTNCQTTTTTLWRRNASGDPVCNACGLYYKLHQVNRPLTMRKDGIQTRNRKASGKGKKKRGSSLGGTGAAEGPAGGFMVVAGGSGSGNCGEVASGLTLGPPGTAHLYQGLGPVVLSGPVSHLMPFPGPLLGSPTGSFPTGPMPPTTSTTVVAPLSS

UBAP2L = target: T3, UBAP2L (Homo sapiens, UniProt Q14157); experiment: dose-response competition pulldown with MS readout
T3 sequence (Q14157 1-1087): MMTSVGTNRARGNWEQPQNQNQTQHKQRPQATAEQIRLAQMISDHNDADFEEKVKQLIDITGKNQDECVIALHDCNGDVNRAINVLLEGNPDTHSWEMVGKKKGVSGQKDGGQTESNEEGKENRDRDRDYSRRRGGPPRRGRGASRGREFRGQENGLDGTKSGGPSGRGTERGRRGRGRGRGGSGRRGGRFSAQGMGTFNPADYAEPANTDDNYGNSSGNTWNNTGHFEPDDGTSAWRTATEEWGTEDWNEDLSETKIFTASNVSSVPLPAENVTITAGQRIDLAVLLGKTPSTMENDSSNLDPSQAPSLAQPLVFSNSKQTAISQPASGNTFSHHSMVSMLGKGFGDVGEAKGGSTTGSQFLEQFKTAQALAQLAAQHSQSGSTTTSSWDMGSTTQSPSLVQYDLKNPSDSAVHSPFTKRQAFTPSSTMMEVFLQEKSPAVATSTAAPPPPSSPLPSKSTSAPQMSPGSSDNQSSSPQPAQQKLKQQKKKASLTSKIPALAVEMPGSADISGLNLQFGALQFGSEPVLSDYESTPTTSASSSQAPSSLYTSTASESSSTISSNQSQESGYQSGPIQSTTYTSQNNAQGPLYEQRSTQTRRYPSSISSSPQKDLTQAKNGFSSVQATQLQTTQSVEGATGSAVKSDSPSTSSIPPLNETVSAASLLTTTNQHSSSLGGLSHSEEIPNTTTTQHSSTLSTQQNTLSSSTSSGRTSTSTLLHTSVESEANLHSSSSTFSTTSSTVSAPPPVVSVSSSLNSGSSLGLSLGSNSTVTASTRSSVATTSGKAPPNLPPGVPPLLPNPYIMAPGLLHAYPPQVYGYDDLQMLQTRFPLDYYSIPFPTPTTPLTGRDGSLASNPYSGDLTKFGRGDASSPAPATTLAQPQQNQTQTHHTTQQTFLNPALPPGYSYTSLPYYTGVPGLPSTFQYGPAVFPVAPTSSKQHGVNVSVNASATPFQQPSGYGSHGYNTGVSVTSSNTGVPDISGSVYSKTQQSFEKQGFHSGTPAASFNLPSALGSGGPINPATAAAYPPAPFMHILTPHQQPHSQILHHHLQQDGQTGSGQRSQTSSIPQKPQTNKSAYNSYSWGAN

TCF3 = target: T4, TCF3 (Homo sapiens, UniProt P15923); experiment: dose-response competition pulldown with MS readout
T4 sequence (P15923 1-654): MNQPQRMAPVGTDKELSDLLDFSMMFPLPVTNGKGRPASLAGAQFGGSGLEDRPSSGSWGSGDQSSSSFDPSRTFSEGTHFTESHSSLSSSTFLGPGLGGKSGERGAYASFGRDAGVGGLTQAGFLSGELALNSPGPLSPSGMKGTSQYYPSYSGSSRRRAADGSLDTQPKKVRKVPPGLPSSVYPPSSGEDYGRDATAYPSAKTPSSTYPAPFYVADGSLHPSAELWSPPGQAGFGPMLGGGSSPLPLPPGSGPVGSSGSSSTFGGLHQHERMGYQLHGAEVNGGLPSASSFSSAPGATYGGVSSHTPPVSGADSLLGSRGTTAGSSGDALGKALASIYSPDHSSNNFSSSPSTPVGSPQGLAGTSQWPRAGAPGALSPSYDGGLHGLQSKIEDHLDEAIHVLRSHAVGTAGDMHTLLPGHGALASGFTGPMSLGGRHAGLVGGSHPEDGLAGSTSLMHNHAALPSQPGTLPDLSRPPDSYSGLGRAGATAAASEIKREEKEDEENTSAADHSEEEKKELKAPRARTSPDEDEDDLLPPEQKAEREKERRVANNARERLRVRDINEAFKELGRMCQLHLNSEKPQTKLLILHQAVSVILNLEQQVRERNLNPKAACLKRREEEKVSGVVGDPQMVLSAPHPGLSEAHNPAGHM

GATA2 = target: T5, GATA2 (Homo sapiens, UniProt P23769); experiment: dose-response competition pulldown with MS readout
T5 sequence (P23769 1-480): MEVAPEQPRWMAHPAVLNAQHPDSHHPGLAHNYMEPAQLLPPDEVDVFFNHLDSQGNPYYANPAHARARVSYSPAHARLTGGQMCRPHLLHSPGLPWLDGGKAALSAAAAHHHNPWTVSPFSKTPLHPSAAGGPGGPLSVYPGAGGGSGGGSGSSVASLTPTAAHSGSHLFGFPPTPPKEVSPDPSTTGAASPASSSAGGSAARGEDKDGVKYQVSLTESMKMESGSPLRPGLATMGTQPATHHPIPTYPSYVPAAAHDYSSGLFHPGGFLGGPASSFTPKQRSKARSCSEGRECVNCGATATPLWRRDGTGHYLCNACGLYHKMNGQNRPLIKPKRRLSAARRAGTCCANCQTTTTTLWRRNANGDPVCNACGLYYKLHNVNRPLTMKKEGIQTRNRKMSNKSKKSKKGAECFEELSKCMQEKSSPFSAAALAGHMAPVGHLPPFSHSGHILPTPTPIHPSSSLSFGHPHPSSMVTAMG

OTUD4 = target: T6, OTUD4 (Homo sapiens, UniProt Q01804); experiment: dose-response competition pulldown with MS readout
T6 sequence (Q01804 1-1114): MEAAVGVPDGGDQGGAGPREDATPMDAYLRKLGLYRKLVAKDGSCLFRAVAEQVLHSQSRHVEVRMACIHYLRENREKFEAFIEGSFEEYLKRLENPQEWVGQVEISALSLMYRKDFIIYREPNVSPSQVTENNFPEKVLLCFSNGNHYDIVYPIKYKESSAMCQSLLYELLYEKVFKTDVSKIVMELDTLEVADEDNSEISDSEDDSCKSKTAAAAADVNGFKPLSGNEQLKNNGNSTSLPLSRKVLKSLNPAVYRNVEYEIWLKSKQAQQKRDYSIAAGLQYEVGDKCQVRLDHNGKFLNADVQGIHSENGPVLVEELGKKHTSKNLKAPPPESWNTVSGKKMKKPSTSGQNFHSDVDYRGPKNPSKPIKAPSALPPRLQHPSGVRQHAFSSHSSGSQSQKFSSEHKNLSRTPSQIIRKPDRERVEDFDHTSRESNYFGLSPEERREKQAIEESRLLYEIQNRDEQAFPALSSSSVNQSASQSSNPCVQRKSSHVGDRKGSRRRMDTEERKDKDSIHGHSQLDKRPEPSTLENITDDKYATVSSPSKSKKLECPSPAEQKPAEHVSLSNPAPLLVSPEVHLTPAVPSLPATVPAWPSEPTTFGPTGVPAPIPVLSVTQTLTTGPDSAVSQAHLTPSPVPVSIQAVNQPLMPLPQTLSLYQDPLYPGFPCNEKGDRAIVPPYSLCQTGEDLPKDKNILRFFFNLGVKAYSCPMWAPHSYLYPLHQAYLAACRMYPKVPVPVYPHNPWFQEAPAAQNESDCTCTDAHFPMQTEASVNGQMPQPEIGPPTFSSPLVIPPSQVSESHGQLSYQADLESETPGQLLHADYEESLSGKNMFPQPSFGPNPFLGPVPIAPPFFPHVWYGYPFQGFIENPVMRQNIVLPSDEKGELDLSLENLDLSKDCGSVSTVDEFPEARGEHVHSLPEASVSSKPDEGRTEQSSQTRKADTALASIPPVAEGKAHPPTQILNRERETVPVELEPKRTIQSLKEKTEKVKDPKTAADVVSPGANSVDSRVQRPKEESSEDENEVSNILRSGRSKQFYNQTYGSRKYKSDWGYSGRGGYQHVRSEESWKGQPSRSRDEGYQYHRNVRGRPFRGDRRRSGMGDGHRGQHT

CNOT1 = CNOT1 (Homo sapiens, UniProt A5YKK6); experiment: dose-response competition pulldown with MS readout; conditions: SW-620 lysate; free FAD vs photo-immobilized FAD beads
Sequence of CNOT1 (A5YKK6 whole entry): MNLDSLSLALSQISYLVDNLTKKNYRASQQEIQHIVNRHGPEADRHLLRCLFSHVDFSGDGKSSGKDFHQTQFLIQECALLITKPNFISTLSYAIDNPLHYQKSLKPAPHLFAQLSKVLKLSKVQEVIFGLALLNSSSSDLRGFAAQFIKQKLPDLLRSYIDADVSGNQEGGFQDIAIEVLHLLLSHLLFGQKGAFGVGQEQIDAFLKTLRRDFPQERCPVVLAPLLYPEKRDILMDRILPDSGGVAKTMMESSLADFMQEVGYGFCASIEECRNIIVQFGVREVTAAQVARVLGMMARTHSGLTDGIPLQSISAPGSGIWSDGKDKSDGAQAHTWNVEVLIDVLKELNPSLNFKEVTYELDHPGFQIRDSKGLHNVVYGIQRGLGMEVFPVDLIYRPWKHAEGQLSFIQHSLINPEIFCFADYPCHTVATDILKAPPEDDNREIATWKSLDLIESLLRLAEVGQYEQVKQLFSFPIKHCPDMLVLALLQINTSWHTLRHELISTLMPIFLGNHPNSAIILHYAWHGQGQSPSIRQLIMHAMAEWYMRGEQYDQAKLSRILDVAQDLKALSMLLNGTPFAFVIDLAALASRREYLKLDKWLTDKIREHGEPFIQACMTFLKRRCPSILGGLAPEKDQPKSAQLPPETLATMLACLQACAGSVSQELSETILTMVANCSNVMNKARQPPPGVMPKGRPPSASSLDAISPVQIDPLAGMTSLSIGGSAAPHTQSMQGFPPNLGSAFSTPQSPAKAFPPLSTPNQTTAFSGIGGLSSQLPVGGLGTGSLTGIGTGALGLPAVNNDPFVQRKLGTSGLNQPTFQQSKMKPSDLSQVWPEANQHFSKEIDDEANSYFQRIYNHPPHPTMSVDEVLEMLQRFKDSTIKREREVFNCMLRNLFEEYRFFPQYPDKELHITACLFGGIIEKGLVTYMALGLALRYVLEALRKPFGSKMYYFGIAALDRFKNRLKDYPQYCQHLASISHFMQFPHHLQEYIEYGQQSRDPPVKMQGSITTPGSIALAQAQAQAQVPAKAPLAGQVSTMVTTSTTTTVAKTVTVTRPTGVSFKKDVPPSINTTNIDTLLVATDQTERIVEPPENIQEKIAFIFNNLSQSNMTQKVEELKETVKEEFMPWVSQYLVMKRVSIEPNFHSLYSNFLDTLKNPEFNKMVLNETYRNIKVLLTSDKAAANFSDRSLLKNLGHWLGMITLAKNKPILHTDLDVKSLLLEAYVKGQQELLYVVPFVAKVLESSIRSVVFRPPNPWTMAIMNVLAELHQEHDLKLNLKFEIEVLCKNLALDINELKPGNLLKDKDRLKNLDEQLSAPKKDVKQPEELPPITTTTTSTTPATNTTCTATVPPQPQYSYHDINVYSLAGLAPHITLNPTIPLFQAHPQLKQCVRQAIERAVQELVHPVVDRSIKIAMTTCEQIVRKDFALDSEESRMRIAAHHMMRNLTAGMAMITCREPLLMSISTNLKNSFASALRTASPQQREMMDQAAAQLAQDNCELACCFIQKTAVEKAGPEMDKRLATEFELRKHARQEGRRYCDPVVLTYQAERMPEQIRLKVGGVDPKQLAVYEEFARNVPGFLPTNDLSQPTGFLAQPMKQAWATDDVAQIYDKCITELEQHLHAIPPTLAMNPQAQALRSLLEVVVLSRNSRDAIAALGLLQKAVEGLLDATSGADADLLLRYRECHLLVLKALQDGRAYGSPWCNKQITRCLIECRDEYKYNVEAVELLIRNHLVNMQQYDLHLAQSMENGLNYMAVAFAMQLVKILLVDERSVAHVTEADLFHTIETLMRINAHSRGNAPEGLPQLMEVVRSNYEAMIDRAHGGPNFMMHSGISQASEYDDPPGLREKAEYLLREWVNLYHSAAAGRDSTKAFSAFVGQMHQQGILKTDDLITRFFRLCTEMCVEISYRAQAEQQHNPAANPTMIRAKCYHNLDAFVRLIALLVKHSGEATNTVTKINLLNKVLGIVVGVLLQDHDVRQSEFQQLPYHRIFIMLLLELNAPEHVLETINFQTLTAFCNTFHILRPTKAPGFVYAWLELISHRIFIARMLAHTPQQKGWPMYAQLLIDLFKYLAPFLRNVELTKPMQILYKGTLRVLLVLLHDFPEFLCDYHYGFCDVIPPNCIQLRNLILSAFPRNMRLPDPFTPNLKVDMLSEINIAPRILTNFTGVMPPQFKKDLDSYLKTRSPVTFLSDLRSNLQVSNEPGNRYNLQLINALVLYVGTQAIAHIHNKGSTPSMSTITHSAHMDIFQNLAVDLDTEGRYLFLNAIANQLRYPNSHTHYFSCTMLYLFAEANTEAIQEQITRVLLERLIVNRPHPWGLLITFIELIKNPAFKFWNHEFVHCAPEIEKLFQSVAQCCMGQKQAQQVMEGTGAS

kinases = experiment: Kinobeads profiling; conditions: latest version of Kinobeads, without immobilized staurosporine

Row | Kd (TRIM11) [nM] | Kd (MED15) [nM] | Kd (GATA1) [nM] | Kd (UBAP2L) [nM] | Kd (TCF3) [nM] | Kd (GATA2) [nM] | Kd (OTUD4) [nM] | CNOT1 bound by the matrix but not competed up to (CNOT1) [µM] | SMILES | number of kinase targets with affinities below 10 μM (kinases)
1 | 186 | 14 | 20 | 36 | 78 | 7 | 11 | > 100 | Cc1cc2nc3c(=O)[nH]c(=O)nc-3n(C[C@H](O)[C@H](O)[C@H](O)COP(=O)(O)OP(=O)(O)OC[C@H]3O[C@@H](n4cnc5c(N)ncnc54)[C@H](O)[C@@H]3O)c2cc1C [FAD, flavin adenine dinucleotide] | –
2 | – | – | – | – | – | – | – | – | CN[C@@H]1C[C@H]2O[C@@](C)([C@@H]1OC)n1c3ccccc3c3c4c(c5c6ccccc6n2c5c31)C(=O)NC4 [Staurosporine] | 94
